Measured values published in patent US11065253B2, “Arylquinazolines” (Merck Patent GmbH, priority 2013, dated 2021).
Where two headings read alike, the source gives them in different places.

Legend:
Kv11.1 (hERG) channel = Kv11.1 (hERG) channel (Homo sapiens (Human), UniProt Q12809); test: Kv11.1 ion channel binding assay (Predictor hERG fluorescence polarisation); settings: class symbol marked with asterisk (*)
Procedure: D) Kv11.1 Ion Channel Binding Assay
Kv11.1 (hERG=human ether a go-go related […]) is a cardiac K^+ channel which should if possible not interact with the test substances. This interaction is determined quantitatively with the aid of the Predictor™ hERG Fluorescence Polarizations (FP) Assays from Life Technologies. In the case of this assay principle, cardiomyocyte cell membranes having a certain proportion of Kv11.1 channels are isolated. A dye-labelled Kv11.1 binding partner gives a high fluorescence polarisation signal by interaction with the Kv11.1. In the case of displacement of the dye, a reduction in the fluorescence polarisation signal occurs.
The assay is carried out automatically as follows: 15 nl of the test substances (highest concentration: 10 mM, 10 concentrations: dilution factors 1:3.16, DMSO) are transferred into an empty microtitre plates having 384 wells by means of an acoustic pipetter. 3 μl of the isolated membranes are subsequently added. Membranes and test substances are incubated at 22° C. for 15 min (+/−5 min). In the next step, the dye-labelled binding partner is added, followed by incubation at 22° C. After incubation for two hours, the measurement of the fluorescence polarisation is carried out on an Envision multimode Reader. Measured raw data are standardised with the aid of Genedata Assay Analyzer. The IC50 and % effect values are calculated in Genedata Condoseo.

[1] = test system: phospho-serine 2056 DNA-PK in HCT116 cells; test: DNA-PK phosphorylation at serine 2056 (cellular), ELISA in bleomycin-treated HCT116 cells; assay type: cell-based; settings: bleomycin-treated HCT116 cells, read-out: IC50 pDNA-PK
In short: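 Test compounds and bleomycin (10 μM) are added to adherent HCT116 cells for 6 h. Detection uses an HRP-based chemiluminescent ELISA, with phospho-DNA-PK signals standardised to total protein.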

[2] = Homo sapiens, HCT-116, phospho-serine 2056 DNA-PK

Kv11.1 (hERG) channel, sequence (Q12809 whole entry): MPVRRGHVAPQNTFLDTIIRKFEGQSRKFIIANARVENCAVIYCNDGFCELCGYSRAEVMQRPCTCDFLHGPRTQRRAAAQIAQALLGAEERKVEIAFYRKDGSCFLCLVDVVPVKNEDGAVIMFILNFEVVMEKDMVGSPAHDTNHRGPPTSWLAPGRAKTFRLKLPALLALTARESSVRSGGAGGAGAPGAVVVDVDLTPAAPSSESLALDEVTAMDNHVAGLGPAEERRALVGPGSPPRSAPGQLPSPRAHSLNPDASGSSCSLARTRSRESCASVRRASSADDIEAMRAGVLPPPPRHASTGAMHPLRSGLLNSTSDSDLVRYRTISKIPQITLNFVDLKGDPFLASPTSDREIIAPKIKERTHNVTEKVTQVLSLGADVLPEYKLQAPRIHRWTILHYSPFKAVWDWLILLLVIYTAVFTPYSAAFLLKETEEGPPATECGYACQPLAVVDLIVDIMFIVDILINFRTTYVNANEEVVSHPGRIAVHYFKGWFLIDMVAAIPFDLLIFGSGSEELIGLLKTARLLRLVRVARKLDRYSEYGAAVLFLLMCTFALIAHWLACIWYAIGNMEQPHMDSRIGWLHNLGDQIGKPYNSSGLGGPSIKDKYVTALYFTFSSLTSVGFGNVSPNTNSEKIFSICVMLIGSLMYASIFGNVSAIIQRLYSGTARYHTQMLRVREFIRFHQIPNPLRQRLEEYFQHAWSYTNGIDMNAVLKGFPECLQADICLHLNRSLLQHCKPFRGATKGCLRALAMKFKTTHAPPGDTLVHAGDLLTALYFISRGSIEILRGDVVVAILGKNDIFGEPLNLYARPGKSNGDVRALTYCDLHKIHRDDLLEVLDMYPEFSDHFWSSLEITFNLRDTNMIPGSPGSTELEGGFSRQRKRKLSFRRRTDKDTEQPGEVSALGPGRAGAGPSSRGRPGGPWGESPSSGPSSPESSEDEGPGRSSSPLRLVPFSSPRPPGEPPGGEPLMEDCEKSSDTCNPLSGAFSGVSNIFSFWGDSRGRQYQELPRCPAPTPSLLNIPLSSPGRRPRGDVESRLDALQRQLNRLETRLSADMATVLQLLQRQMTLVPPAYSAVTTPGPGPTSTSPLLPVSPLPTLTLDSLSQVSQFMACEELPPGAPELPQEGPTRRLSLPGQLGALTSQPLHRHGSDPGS

`NC(=O)C(c1ccc(F)c(-c2ncnc3cc(N4CCOCC4)ccc23)c1)c1nccn2ncnc12` (stereo not shown) [Example 280, 2-[4-Fluoro-3-(7-morpholin-4-yl-quinazolin-4-yl)-phenyl]-2-[1,2,4]-triazolo[1,5-a]-pyrazin-8-yl-acetamide] was tested, and the “Ki [Kv1.11 hERG]” value (Kv11.1 (hERG) channel) was “A*” and the IC50 [1, 2] was 10 to 30 µM.
For `COc1ccc(C(O)c2cc(-c3ncnc4cc(N5CCOCC5)cc(F)c34)c(F)cc2Cl)nn1` (stereo not shown) [Example 278, [2-chloro-4-fluoro-5-(5-fluoro-7-morpholin-4-ylquinazolin-4-yl)phenyl]-(6-methoxypyridazin-3-yl)methanol], the “Ki [Kv1.11 hERG]” value (Kv11.1 (hERG) channel) was “A*” and the IC50 ([1]; phospho-serine 2056 DNA-PK) was < 0.5 µM.
With `COc1nccnc1C(O)c1cc(-c2ncnc3cc(N4CCOCC4)cc(F)c23)c(F)cc1Cl` (stereo not shown) [Example 250, [2-Chloro-4-fluoro-5-(5-fluoro-7-morpholin-4-yl-quinazolin-4-yl)-phenyl]-(3-methoxy-pyrazin-2-yl)-methanol] the “Ki [Kv1.11 hERG]” value (Kv11.1 (hERG) channel) was “A*” and the IC50 ([1]; phospho-serine 2056 DNA-PK) was < 0.5 µM.
For `COc1ccc(C(O)c2ccc(F)c(-c3ncnc4cc(N5CCOCC5)c(F)cc34)c2)nn1` (stereo not shown) [Example 282, [4-Fluoro-3-(6-fluoro-7-morpholin-4-yl-quinazolin-4-yl)-phenyl]-(6-methoxy-pyridazin-3-yl)-methanol], the “Ki [Kv1.11 hERG]” value (Kv11.1 (hERG) channel) was “A*” and the IC50 [1, 2] was 10 to 30 µM.
In the case of `COc1nccnc1C(O)c1ccc(F)c(-c2ncnc3cc(N4CCOCC4)cc(F)c23)c1` (stereo not shown) [Example 267, [4-Fluoro-3-(5-fluoro-7-morpholin-4-yl-quinazolin-4-yl)-phenyl]-(3-methoxy-pyrazin-2-yl)-methanol], the “Ki [Kv1.11 hERG]” value (Kv11.1 (hERG) channel) is reported as “A*” and the IC50 ([1]; phospho-serine 2056 DNA-PK) is reported as < 0.5 µM.
For `Cc1nccnc1C(O)c1ccc(F)c(-c2ncnc3cc(N4CCOCC4)cc(F)c23)c1` (stereo not shown) [Example 268, [4-Fluoro-3-(5-fluoro-7-morpholin-4-yl-quinazolin-4-yl)-phenyl]-(3-methyl-pyrazin-2-yl)-methanol], the “Ki [Kv1.11 hERG]” value (Kv11.1 (hERG) channel) was “A*” and the IC50 [1, 2] was < 0.5 µM.
With `COc1ccc(C(O)c2ccc(F)c(-c3ncnc4cc(N5CCOCC5)cc(F)c34)c2)nn1` (stereo not shown) [Example 255, [4-Fluoro-3-(5-fluoro-7-morpholin-4-yl-quinazolin-4-yl)-phenyl]-(6-methoxy-pyridazin-3-yl)-methanol] the “Ki [Kv1.11 hERG]” value (Kv11.1 (hERG) channel) was “A*” and the IC50 [1, 2] was < 0.5 µM.
With `COc1ccc(C(O)c2ccc(F)c(-c3ncnc4cc(N5CCOCC5)cc(F)c34)c2)nn1` (stereo not shown) [Example 256, [4-Fluoro-3-(5-fluoro-7-morpholin-4-yl-quinazolin-4-yl)-phenyl]-(6-methoxy-pyridazin-3-yl)-methanol] the “Ki [Kv1.11 hERG]” value (Kv11.1 (hERG) channel) was “A*” and the IC50 ([1]; phospho-serine 2056 DNA-PK) was < 0.5 µM.
With `CN1N=C(C(O)c2cc(-c3ncnc4cc(N5CCOCC5)ccc34)c(F)cc2Cl)CCC1=O` (stereo not shown) [Example 288, 6-{[2-Chloro-4-fluoro-5-(7-morpholin-4-yl-quinazolin-4-yl)-phenyl]hydroxy-methyl}-2-methyl-4,5-dihydro-2H-pyridazin-3-one] the “Ki [Kv1.11 hERG]” value (Kv11.1 (hERG) channel) was “A*” and the IC50 [1, 2] was 5 to 10 µM.
In the case of `[2H]C1([2H])OC([2H])([2H])C([2H])([2H])N(c2ccc3c(-c4cc(C(O)c5nccnc5C)ccc4F)ncnc3c2)C1([2H])[2H]` (stereo not shown) [Example 259, [4-Fluoro-3-[7-(2,2,3,3,5,5,6,6-octadeuterio-morpholin-4-yl)quinazolin-4-yl]phenyl]-(3-methyl-pyrazin-2-yl)-methanol], the “Ki [Kv1.11 hERG]” value (Kv11.1 (hERG) channel) is reported as “A*” and the IC50 ([1]; phospho-serine 2056 DNA-PK) is reported as < 0.5 µM.
In the case of `Fc1cc(Cl)c(Cc2ccc3nccn3n2)cc1-c1ncnc2cc(N3CCOCC3)ccc12` [Example 235, 4-(4-Chloro-2-fluoro-5-imidazo[1,2-b]-pyridazin-6-ylmethyl-phenyl)-7-morpholin-4-ylquinazoline], the “Ki [Kv1.11 hERG]” value (Kv11.1 (hERG) channel) is reported as “A*” and the IC50 [1, 2] is reported as < 0.5 µM.
With `COc1nccnc1C(O)c1cc(-c2ncnc3cc(N4CCOCC4)cc(F)c23)c(F)cc1Cl` (stereo not shown) [Example 249, [2-Chloro-4-fluoro-5-(5-fluoro-7-morpholin-4-yl-quinazolin-4-yl)-phenyl]-(3-methoxy-pyrazin-2-yl)-methanol] the “Ki [Kv1.11 hERG]” value (Kv11.1 (hERG) channel) was “A*” and the IC50 [1, 2] was < 0.5 µM.
In the case of `[2H]C1([2H])OC([2H])([2H])C([2H])([2H])N(c2ccc3c(-c4cc(C(O)c5nccnc5OC)c(Cl)cc4F)ncnc3c2)C1([2H])[2H]` (stereo not shown) [Example 258, [2-Chloro-4-fluoro-5-[7-(2,2,3,3,5,5,6,6-octadeuterio-morpholin-4-yl)-quinazolin-4-yl- ]phenyl]-(3-methoxy-pyrazin-2-yl)-methanol], the “Ki [Kv1.11 hERG]” value (Kv11.1 (hERG) channel) is reported as “A*” and the IC50 ([1]; phospho-serine 2056 DNA-PK) is reported as < 0.5 µM.
For `COc1ccc(C(C(N)=O)c2cc(-c3ncnc4cc(N5CCOCC5)sc34)c(F)cc2Cl)nn1` (stereo not shown) [Example 272, 2-[2-Chloro-4-fluoro-5-(6-morpholin-4-yl-thieno[3,2-d}-pyrimidin-4-yl)-phenyl]-2-(6-methoxy-pyridazin-3-yl)acetamide], the “Ki [Kv1.11 hERG]” value (Kv11.1 (hERG) channel) was “A*” and the IC50 [1, 2] was 0.5 to 5 µM.
For `Cc1nccnc1C(O)c1ccc(F)c(-c2ncnc3cc(N4CCOCC4)sc23)c1` (stereo not shown) [Example 245, [4-Fluoro-3-(6-morpholin-4-yl-thieno[3,2-d}-pyrimidin-4-yl)-phenyl]-(3-methyl-pyrazin-2-yl)-methanol], the “Ki [Kv1.11 hERG]” value (Kv11.1 (hERG) channel) was “A*” and the IC50 [1, 2] was < 0.5 µM.
With `Cc1nccnc1C(O)c1ccc(F)c(-c2ncnc3cc(N4CCOCC4)sc23)c1` (stereo not shown) [Example 246, [4-Fluoro-3-(6-morpholin-4-yl-thieno[3,2-d}-pyrimidin-4-yl)-phenyl]-(3-methyl-pyrazin-2-yl)-methanol] the “Ki [Kv1.11 hERG]” value (Kv11.1 (hERG) channel) was “A*”.
In the case of `COc1nnc(Cl)cc1C(O)c1ccc(F)c(-c2ncnc3cc(N4CCOCC4)ccc23)c1` (stereo not shown) [Example 286, (6-Chloro-3-methoxy-pyridazin-4-yl)-[4-fluoro-3-(7-morpholin-4-yl-quinazolin-4-yl)-phenyl]methanol (Ena 1)], the “Ki [Kv1.11 hERG]” value (Kv11.1 (hERG) channel) is reported as “A*” and the IC50 [1, 2] is reported as 5 to 10 µM.
For `Cc1nccnc1[C@@H](O)c1ccc(F)c(-c2ncnc3cc(N4CCOCC4)cc(F)c23)c1` [Example 251, (S)-[4-fluoro-3-(5-fluoro-7-morpholin-4-ylquinazolin-4-yl)-phenyl]-(3-methyl-pyrazin-2-yl)-methanol], the “Ki [Kv1.11 hERG]” value (Kv11.1 (hERG) channel) was “A*” and the IC50 [1, 2] was 0.5 to 5 µM.
With `COc1nccnc1C(O)c1cc(-c2ncnc3cc(N4CCOCC4)cc(F)c23)c(F)cc1Cl` (stereo not shown) [Example 266, [2-Chloro-4-fluoro-5-(5-fluoro-7-morpholin-4-yl-quinazolin-4-yl)-phenyl]-(3-methoxy-pyrazin-2-yl)-methanol] the “Ki [Kv1.11 hERG]” value (Kv11.1 (hERG) channel) was “A*” and the IC50 ([1]; phospho-serine 2056 DNA-PK) was < 0.5 µM.
In the case of `CNC(=O)C(c1ccc2nccn2n1)c1cc(-c2ncnc3cc(N4CCOCC4)ccc23)c(F)cc1Cl` (stereo not shown) [Example 236, 2-[2-Chloro-4-fluoro-5-(7-morpholin-4-yl-quinazolin-4-yl)-phenyl]-2-imidazo-[1,2-b]pyridazin-6-yl-N-methylacetamide], the “Ki [Kv1.11 hERG]” value (Kv11.1 (hERG) channel) is reported as “A*” and the IC50 [1, 2] is reported as 5 to 10 µM.
`Cc1nccnc1C(O)c1cc(-c2ncnc3cc(N4CCOCC4)sc23)c(F)cc1Cl` (stereo not shown) [Example 264, [2-Chloro-4-fluoro-5-(6-morpholin-4-yl-thieno[3,2-d}-pyrimidin-4-yl)-phenyl]-(3-methyl-pyrazin-2-yl)-methanol] was tested, and the “Ki [Kv1.11 hERG]” value (Kv11.1 (hERG) channel) was “A*” and the IC50 [1, 2] was < 0.5 µM.
With `OC(c1ccc(F)c(-c2ncnc3cc(N4CCOCC4)ccc23)c1)c1nccn2ncnc12` (stereo not shown) [Example 279, [4-Fluoro-3-(7-morpholin-4-yl-quinazolin-4-yl)-phenyl]-[1,2,4]-triazolo[1,5-a]-pyrazin-8-ylmethanol] the “Ki [Kv1.11 hERG]” value (Kv11.1 (hERG) channel) was “A*” and the IC50 [1, 2] was 5 to 10 µM.
`NC(=O)C(c1ccc(F)c(-c2ncnc3cc(N4CCOCC4)ccc23)c1)c1nncc2ccsc12` (stereo not shown) [Example 284, 2-[4-Fluoro-3-(7-morpholin-4-yl-quinazolin-4-yl)-phenyl]-2-thieno-[2,3-d}pyridazin-7-yl-acetamide] was tested, and the “Ki [Kv1.11 hERG]” value (Kv11.1 (hERG) channel) was “A*”.
With `Cc1nccnc1C(C(N)=O)c1cc(-c2ncnc3cc(N4CCOCC4)sc23)c(F)cc1Cl` (stereo not shown) [Example 269, 2-[2-Chloro-4-fluoro-5-(6-morpholin-4-yl-thieno[3,2-d}-pyrimidin-4-yl)-phenyl]-2-(3-methyl-pyrazin-2-yl)-acetamide] the “Ki [Kv1.11 hERG]” value (Kv11.1 (hERG) channel) was “A*” and the IC50 [1, 2] was 0.5 to 5 µM.
For `Cc1nccnc1C(C(N)=O)c1ccc(F)c(-c2ncnc3cc(N4CCOCC4)sc23)c1` (stereo not shown) [Example 270, 2-[4-Fluoro-3-(6-morpholin-4-yl-thieno[3,2-d}-pyrimidin-4-yl)-phenyl]-2-(3-methyl-pyrazin-2-yl)-acetamide], the “Ki [Kv1.11 hERG]” value (Kv11.1 (hERG) channel) was “A*” and the IC50 [1, 2] was 5 to 10 µM.
In the case of `CNC(=O)C(c1cc(-c2ncnc3cc(N4CCOCC4)ccc23)c(F)cc1Cl)c1nccnc1C` (stereo not shown) [Example 254, 2-[2-Chloro-4-fluoro-5-(7-morpholin-4-yl-quinazolin-4-yl)-phenyl]-N-methyl-2-(3-methyl-pyrazin-2-yl)acetamide], the “Ki [Kv1.11 hERG]” value (Kv11.1 (hERG) channel) is reported as “A*” and the IC50 [1, 2] is reported as 10 to 30 µM.
With `Cc1nccnc1C(O)c1ccc(F)c(-c2ncnc3cc(N4CCOCC4)sc23)c1` (stereo not shown) [Example 265, [4-Fluoro-3-(6-morpholin-4-yl-thieno[3,2-d}-pyrimidin-4-yl)-phenyl]-(3-methyl-pyrazin-2-yl)-methanol] the “Ki [Kv1.11 hERG]” value (Kv11.1 (hERG) channel) was “A*” and the IC50 ([1]; phospho-serine 2056 DNA-PK) was < 0.5 µM.
